Source: ChEMBL document CHEMBL5233220, “A review of currently identified small molecule modulators of microRNA function” (Eur J Med Chem, 2020)
“And” between values parts separate entries of the source, which are not always exact repeats. Equal values may be shown once. Blank lines part the entries; values can stand above or below the compound they belong to.

Key:
[1] = Inhibition of human topoisomerase 2
[2] = Inhibition of miR-96 (unknown origin); design: species or system Homo sapiens
[3] = Binding affinity to miR-96 (unknown origin) assessed as dissociation constant; design: species or system Homo sapiens
[4] = Binding affinity to miR-18a (unknown origin) assessed as dissociation constant
[5] = Inhibition of miR-18a (unknown origin) […] by qRT-PCR analysis
[6] = Inhibition of pre-miR-372 (unknown origin)
Protein argonaute-2 = Protein argonaute-2 (Homo sapiens, UniProt Q9UKV8); experiment: Binding affinity to AGO2 (unknown origin) assessed as dissociation constant by RIP assay
Chain of Protein argonaute-2 (Q9UKV8 whole entry): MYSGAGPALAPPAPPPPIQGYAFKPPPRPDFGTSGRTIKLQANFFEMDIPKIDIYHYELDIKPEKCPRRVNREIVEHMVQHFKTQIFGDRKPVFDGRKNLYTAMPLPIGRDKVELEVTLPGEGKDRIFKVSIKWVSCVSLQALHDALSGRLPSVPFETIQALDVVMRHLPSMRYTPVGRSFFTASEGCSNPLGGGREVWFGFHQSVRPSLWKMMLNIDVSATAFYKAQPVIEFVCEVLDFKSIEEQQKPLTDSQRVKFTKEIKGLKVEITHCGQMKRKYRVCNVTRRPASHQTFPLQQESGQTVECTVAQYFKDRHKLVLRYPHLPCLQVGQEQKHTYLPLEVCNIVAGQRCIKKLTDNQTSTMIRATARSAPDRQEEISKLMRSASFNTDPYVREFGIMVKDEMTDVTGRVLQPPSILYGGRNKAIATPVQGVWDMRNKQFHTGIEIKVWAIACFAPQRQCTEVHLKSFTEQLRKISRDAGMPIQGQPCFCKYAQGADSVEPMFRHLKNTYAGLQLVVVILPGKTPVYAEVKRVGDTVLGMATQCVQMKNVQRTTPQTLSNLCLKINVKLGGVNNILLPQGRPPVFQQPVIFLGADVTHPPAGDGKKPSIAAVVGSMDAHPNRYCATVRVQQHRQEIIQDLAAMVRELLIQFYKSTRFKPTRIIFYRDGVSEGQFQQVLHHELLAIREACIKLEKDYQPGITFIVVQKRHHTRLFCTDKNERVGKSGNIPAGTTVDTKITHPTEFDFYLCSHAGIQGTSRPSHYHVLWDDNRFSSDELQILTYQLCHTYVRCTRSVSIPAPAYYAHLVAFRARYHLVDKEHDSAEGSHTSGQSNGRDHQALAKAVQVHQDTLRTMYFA

[7] = Inhibition of miR-27a (unknown origin) maturation at 5 uM relative to control
[8] = Binding affinity to miR-27a (unknown origin) assessed as dissociation constant by FP assay
[9] = Binding affinity to miR-10b (unknown origin) assessed as dissociation constant
HeLa [10] = experiment: Inhibition of miR-10b maturation in human HeLa cells at 100 uM by luciferase assay relative to control; format: cell-based
HeLa [11] = experiment: Inhibition of pre-miR-10b maturation in human HeLa cells at 100 uM by luciferase assay relative to control; format: cell-based
[12] = Binding affinity to pre-miR-21 (unknown origin) at A bulge assessed as dissociation constant by dicer assay
[13] = Binding affinity to pre-miR-21 (unknown origin) at U bulge assessed as dissociation constant by dicer assay
[14] = Inhibition of pre-miR-21 (unknown origin)
[15] = Binding affinity to pre-miR-21 (unknown origin) assessed as dissociation constant by fluorescence-based assay
[16] = Binding affinity to pre-miR-21 (unknown origin) assessed as dissociation constant

Kd (Protein argonaute-2): 126000 nM
SMILES: CC(NS(=O)(=O)c1ccc2nc(O)c(O)nc2c1)C(=O)O (configuration not stated)

inhibition [7]: 25%
Kd [8]: 730 nM
SMILES: CNC(=O)c1cc(Oc2ccc(NC(=O)Nc3ccc(Cl)c(C(F)(F)F)c3)c(F)c2)ccn1 [REGORAFENIB]

Kd [15]: 3700 nM
Kd [16]: 3700 nM
SMILES: NC(=O)C1=Cc2ccccc2C/C1=N/CC(=S)Nc1ccccc1

Further lines, the compound ahead of its results:

SMILES: CCn1cc(C(=O)O)c(=O)c2cc(F)c(N3CCNCC3)nc21 [ENOXACIN]
IC50 [1]: 30000 nM

SMILES: CN1CCN(c2ccc(-c3ccc4nc(-c5cc(C(C)(C)C)c(OCCCC(=O)NCCCN=[N+]=[N-])c(C(C)(C)C)c5)[nH]c4c3)cc2)CC1
IC50 [2]: 50 nM and 200 nM
Kd [3]: 85 nM
Kd [4]: 30000 nM
IC50 [5]: 10000 nM

SMILES: CN(c1ccccc1)C1c2ccccc2N=C(NCCCNCCCCNCCCN)C1(C)C (configuration not stated)
IC50 [6]: 1060 nM

SMILES: [N-]=[N+]=NC[C@H]1O[C@@H](O[C@H]2[C@H](O[C@H]3O[C@H](CNC(=N)N)[C@@H](O)[C@H](O)[C@H]3NC(=N)N)[C@@H](NC(=N)N)CC[C@@H]2O)[C@H](O)[C@@H]1O[C@H]1O[C@@H](CNC(=N)N)C[C@H](O)[C@H]1NC(=N)N
Kd [9]: 417 nM
inhibition (HeLa [10]): 50%
inhibition (HeLa [11]): 30%

SMILES: O=C1c2c(O)ccc(O)c2C(=O)c2c(NCCNCCO)ccc(NCCNCCO)c21 [MITOXANTRONE]
Kd [12]: 33 nM
Kd [13]: 46 nM
IC50 [14]: 3000 nM
